Laboratory results taken from patent US11623919B2, “Heterocyclic P2X7 antagonists” (AXXAM S.P.A., priority 2017, dated 2023).

How the values were obtained:
Assay in all cases: Screen Quest Fluo-8 No Wash Calcium Assay (Bz-ATP evoked Ca2+ influx, FLIPR)
Type in all cases: cell-based
P2X7 receptor [1] = target: T1, P2X7 receptor (Rattus norvegicus, UniProt Q64663); conditions: rP2X7; HEK-293 cells stably transfected with P2X7 receptor, Bz-ATP at EC80, Fluo-8 NW; potency ranges A-D
T1 construct: rP2X7 (IC50; nM); other: rP2X7; HEK-293 cells stably transfected with P2X7 receptor, Bz-ATP at EC80, Fluo-8 NW; potency
T1 sequence (Q64663 1-595): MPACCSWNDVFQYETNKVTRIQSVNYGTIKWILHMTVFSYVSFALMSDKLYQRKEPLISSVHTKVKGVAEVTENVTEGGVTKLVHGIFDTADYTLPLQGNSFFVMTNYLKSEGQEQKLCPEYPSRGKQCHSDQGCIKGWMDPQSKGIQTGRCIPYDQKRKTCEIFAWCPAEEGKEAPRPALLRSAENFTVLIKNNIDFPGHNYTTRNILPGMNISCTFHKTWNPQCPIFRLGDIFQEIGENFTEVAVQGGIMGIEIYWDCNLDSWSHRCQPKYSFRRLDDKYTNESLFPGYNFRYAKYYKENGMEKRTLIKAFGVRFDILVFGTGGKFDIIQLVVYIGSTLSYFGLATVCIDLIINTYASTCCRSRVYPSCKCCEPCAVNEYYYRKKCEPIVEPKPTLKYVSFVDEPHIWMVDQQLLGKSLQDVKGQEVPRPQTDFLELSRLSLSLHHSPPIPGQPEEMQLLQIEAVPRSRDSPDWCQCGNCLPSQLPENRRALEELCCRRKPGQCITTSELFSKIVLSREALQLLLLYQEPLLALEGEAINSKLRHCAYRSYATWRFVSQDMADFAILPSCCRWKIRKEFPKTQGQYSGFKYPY
Method: (§1) Extracellular binding of Bz-ATP to P2X7 receptor opens the channel and allows Ca2+ influx into the cells. […] Once inside the cell, the lipophilic blocking groups of Fluo-8 are cleaved by non-specific cell esterases, resulting in a negatively-charged fluorescent dye that stays inside cells. Its fluorescence increases upon binding to calcium.
(§2) HEK-293 cells stably transfected with P2X7 receptor were seeded overnight in growth medium at 10,000 to 20,000 cell/well in 384-well plate. 24 hours later, the medium was removed and the cells were pre-loaded at RT for 1 hour with 20 μL/w of Fluo-8 NW. Then 10 μL/w of tests compounds and reference antagonist A438079 at 3×-concentration were injected with the […] and the kinetic response over a period of five minutes was monitored. A second injection of 15 μL/w of 3× reference activator (Bz-ATP at EC80) was performed with the […] and the signal of the emitted fluorescence was recorded for additional three minutes. All the experiment was carried out in a Low Divalent Cation Assay Buffer (0.3 mM Ca^2+ and 0 mM Mg^2+). The effect of the test compounds was measured as percent inhibition vs the reference antagonist and IC50 values were calculated accordingly.

P2X7 receptor [2] = target: T2, P2X7 receptor (Mus musculus, UniProt Q9Z1M0); conditions: mP2X7; HEK-293 cells stably transfected with P2X7 receptor, Bz-ATP at EC80, Fluo-8 NW; potency ranges A-D
T2 construct: mP2X7 (IC50; nM); other: mP2X7; HEK-293 cells stably transfected with P2X7 receptor, Bz-ATP at EC80, Fluo-8 NW; potency
T2 sequence (Q9Z1M0 1-595): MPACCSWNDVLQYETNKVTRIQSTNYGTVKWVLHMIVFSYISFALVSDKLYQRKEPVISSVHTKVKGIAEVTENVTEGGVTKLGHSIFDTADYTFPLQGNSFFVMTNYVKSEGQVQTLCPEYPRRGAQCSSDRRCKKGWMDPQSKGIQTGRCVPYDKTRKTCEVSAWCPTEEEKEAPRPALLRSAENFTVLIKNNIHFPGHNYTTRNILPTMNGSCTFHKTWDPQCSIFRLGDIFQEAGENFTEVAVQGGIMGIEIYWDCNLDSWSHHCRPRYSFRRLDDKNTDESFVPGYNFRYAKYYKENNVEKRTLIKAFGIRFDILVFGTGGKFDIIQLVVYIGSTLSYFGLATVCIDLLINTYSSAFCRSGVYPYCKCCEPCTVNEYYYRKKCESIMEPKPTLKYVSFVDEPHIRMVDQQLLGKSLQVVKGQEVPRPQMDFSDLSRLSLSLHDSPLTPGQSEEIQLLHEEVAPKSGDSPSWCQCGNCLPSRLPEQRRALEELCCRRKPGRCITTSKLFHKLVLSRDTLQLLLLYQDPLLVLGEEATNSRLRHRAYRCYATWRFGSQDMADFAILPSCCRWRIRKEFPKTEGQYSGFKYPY
Method: as §1, §2

P2X7 receptor [3] = target: T3, P2X7 receptor (Homo sapiens, UniProt Q99572); design: hP2X7 (IC50; nM); other: hP2X7; HEK-293 cells stably transfected with P2X7 receptor, Bz-ATP at EC80, Fluo-8 NW; potency; conditions: hP2X7; HEK-293 cells stably transfected with P2X7 receptor, Bz-ATP at EC80, Fluo-8 NW; potency ranges A-D
T3 sequence (Q99572 1-595): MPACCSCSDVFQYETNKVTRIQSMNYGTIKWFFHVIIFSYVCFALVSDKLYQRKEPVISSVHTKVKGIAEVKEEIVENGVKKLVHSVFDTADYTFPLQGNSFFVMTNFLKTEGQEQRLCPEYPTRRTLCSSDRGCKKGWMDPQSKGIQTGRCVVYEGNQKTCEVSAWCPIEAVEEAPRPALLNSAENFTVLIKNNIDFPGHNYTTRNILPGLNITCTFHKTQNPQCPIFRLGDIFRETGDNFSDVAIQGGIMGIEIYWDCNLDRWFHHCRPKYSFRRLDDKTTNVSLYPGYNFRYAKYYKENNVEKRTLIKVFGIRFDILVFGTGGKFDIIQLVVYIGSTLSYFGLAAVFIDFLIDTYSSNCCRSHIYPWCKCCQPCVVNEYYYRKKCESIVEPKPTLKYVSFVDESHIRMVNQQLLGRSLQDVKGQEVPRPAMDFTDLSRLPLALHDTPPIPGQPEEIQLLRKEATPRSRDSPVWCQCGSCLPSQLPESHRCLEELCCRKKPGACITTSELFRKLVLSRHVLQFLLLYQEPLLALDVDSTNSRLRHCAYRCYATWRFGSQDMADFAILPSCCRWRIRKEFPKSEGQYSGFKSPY
Method: as §1, §2

SMILES	IC50 (P2X7 receptor [1])	IC50 (P2X7 receptor [2])	IC50 (P2X7 receptor [3])
Cn1ccnc1Cn1c(CC2CCC(F)(F)CC2)noc1=O [Example 201, 3-[(4,4-difluorocyclohexyl)methyl]-4-[(1-methyl-1H-imidazol-2-yl)methyl]-4,5-dihydro-1,2,4-oxadiazol-5-one]	1000 to 10000 nM	> 10000 nM	> 10000 nM
O=c1onc(Cc2c(F)cccc2Cl)n1CC1COCCO1 (stereo not drawn) [Example 98, 3-[(2-chloro-6-fluorophenyl)methyl]-4-(1,4-dioxan-2-ylmethyl)-4,5-dihydro-1,2,4-oxadiazol-5-one]	1000 to 10000 nM	> 10000 nM	> 10000 nM
Cc1cc(Cn2c(Cc3c(F)cccc3Cl)noc2=O)n(C)n1 [Example 46, 3-[(2-chloro-6-fluorophenyl)methyl]-4-[(1,3-dimethyl-1H-pyrazol-5-yl)methyl]-4,5-dihydro-1,2,4-oxadiazol-5-one]	> 10000 nM	> 10000 nM	> 10000 nM
O=c1onc(CN2CCCCC2)n1Cc1c(F)cccc1Cl [Example 241, 4-[(2-chloro-6-fluorophenyl)methyl]-3-[(piperidin-1-yl)methyl]-1,2,4-oxadiazol-5(4H)-one]	< 200 nM	200 to 1000 nM	200 to 1000 nM
O=c1onc(Cc2c(F)cccc2Cl)n1Cc1ccoc1 [Example 44, 3-[(2-chloro-6-fluorophenyl)methyl]-4-(furan-3-ylmethyl)-4,5-dihydro-1,2,4-oxadiazol-5-one]	1000 to 10000 nM	> 10000 nM	1000 to 10000 nM
Cc1cc(F)ccc1Cn1c(CC2CCC(F)(F)CC2)noc1=O [Example 171, 3-[(4,4-difluorocyclohexyl)methyl]-4-[(4-fluoro-2-methylphenyl)methyl]-4,5-dihydro-1,2,4-oxadiazol-5-one]	200 to 1000 nM	1000 to 10000 nM	1000 to 10000 nM
COc1ccc(Cc2noc(=O)n2CC2CCC(F)(F)CC2)cc1 [Example 154, 4-[(4,4-difluorocyclohexyl)methyl]-3-[(4-methoxyphenyl)methyl]-4,5-dihydro-1,2,4-oxadiazol-5-one]	1000 to 10000 nM	1000 to 10000 nM	1000 to 10000 nM
O=c1onc(Cc2ccc(Cl)cc2Cl)n1Cc1ccc(F)cc1 [Example 74, 3-[(2,4-dichlorophenyl)methyl]-4-[(4-fluorophenyl)methyl]-4,5-dihydro-1,2,4-oxadiazol-5-one]	1000 to 10000 nM	1000 to 10000 nM	1000 to 10000 nM
O=c1onc(Cc2cccc(C(F)(F)F)c2Cl)n1Cc1ccc(F)cc1 [Example 72, 3-{[2-chloro-3-(trifluoromethyl)phenyl]methyl}-4-[(4-fluorophenyl)methyl]-4,5-dihydro-1,2,4-oxadiazol-5-one]	> 10000 nM	> 10000 nM	> 10000 nM
Cc1ncccc1Cn1c(Cc2c(F)cccc2Cl)noc1=O [Example 24, 3-[(2-chloro-6-fluorophenyl)methyl]-4-[(2-methylpyridin-3-yl)methyl]-4,5-dihydro-1,2,4-oxadiazol-5-one]	> 10000 nM	1000 to 10000 nM	> 10000 nM
Cc1noc(C)c1Cc1noc(=O)n1Cc1ccc(F)cc1 [Example 208, 3-[(dimethyl-1,2-oxazol-4-yl)methyl]-4-[(4-fluorophenyl)methyl]-4,5-dihydro-1,2,4-oxadiazol-5-one]	1000 to 10000 nM	> 10000 nM	1000 to 10000 nM
O=c1onc(CN2CCOc3ccccc32)n1Cc1ccc(F)cc1 [Example 228, 3-(3,4-dihydro-2H-1,4-benzoxazin-4-ylmethyl)-4-[(4-fluorophenyl)methyl]-4,5-dihydro-1,2,4-oxadiazol-5-one]	200 to 1000 nM	200 to 1000 nM	< 200 nM
O=c1onc(Cc2ccncc2)n1Cc1ccc(F)cc1 [Example 79, 4-[(4-fluorophenyl)methyl]-3-(pyridin-4-ylmethyl)-4,5-dihydro-1,2,4-oxadiazol-5-one]	> 10000 nM	> 10000 nM	> 10000 nM
O=c1onc(Cc2c(F)cccc2Cl)n1Cn1ccc(C(F)(F)F)n1 [Example 35, 3-[(2-chloro-6-fluorophenyl)methyl]-4-{[3-(trifluoromethyl)-1H-pyrazol-1-yl]methyl}-4,5-dihydro-1,2,4-oxadiazol-5-one]	1000 to 10000 nM	1000 to 10000 nM	1000 to 10000 nM
O=c1onc(Cc2c(F)cccc2Cl)n1CC1CCOCC1 [Example 93, 3-[(2-chloro-6-fluorophenyl)methyl]-4-(oxan-4-ylmethyl)-4,5-dihydro-1,2,4-oxadiazol-5-one]	200 to 1000 nM	1000 to 10000 nM	1000 to 10000 nM
Cc1ncsc1Cn1c(Cc2ccc(F)cc2)noc1=O [Example 8, 3-[(4-fluorophenyl)methyl]-4-[(4-methyl-1,3-thiazol-5-yl)methyl]-4,5-dihydro-1,2,4-oxadiazol-5-one]	> 10000 nM	> 10000 nM	1000 to 10000 nM
COc1ccc(Cc2noc(=O)n2CC2CCCCC2)cc1 [Example 112, 4-(cyclohexylmethyl)-3-[(4-methoxyphenyl)methyl]-4,5-dihydro-1,2,4-oxadiazol-5-one]	200 to 1000 nM	1000 to 10000 nM	1000 to 10000 nM
O=c1snc(CC2CCC(F)(F)CC2)n1Cc1c(F)cccc1Cl [Example 203, 4-[(2-chloro-6-fluorophenyl)methyl]-3-[(4,4-difluorocyclohexyl)methyl]-4,5-dihydro-1,2,4-thiadiazol-5-one]	< 200 nM	< 200 nM	< 200 nM
O=c1onc(Cc2c(F)cccc2Cl)n1Cc1ncc(F)cn1 [Example 45, 3-[(2-chloro-6-fluorophenyl)methyl]-4-[(5-fluoropyrimidin-2-yl)methyl]-4,5-dihydro-1,2,4-oxadiazol-5-one]	> 10000 nM	> 10000 nM	> 10000 nM
